Test [1] deals with T1, plasma kallikrein (Homo sapiens, UniProt P03952).
T1 construct: from tissue
Briefly: Neat human plasma assay, FXIIa contact pathway-activated, PFR-AMC substrate. The format is biochemical. As to conditions: citrated human plasma 78% final, 10 nM human FXIIa, 100 μM PFR-AMC; read-out: Human Plasma Assay: IC90. Summed up: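 Compound inhibition of plasma kallikrein measured as PFR-AMC (100 μM) cleavage rate over 5 min at room temperature in 78% citrated human plasma activated with 10 nM FXIIa (Tris pH 7.5 buffer). IC50/IC90 from 4-parameter fit of rate versus inhibitor concentration.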

The target of test [2] is human activated kallikrein enzyme (Homo sapiens, UniProt P03952). The test is described as follows: Plasma kallikrein inhibition, fluorogenic PFR-AMC substrate, 500 pM activated kallikrein format. The class given is biochemical. The conditions noted are these: 500 pM activated kallikrein, 300 uM PFR-AMC, 30 min preincubation, 10 min reaction; read-out: Primary Dose Response Assay: Average EC50. In outline: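 Fluorescence (ex 380/em 460 nm) is read after 10 min of 300 uM PFR-AMC turnover by 500 pM enzyme at RT. Compounds sit with enzyme for 30 min beforehand. Buffer is Tris (pH 7.5) with EDTA, NaCl, PEG-400 and Triton X-100; EC50 values are banded.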
Sequence of human activated kallikrein enzyme (P03952 391-638 limits assumed): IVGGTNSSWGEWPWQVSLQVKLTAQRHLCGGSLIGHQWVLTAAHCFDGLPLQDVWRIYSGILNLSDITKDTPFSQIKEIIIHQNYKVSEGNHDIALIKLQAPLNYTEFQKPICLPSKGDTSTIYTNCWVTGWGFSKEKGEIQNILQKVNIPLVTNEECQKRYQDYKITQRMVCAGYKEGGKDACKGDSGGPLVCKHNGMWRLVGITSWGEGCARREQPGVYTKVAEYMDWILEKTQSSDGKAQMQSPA
Sequence of human activated kallikrein enzyme (P03952 20-390 partner limits assumed): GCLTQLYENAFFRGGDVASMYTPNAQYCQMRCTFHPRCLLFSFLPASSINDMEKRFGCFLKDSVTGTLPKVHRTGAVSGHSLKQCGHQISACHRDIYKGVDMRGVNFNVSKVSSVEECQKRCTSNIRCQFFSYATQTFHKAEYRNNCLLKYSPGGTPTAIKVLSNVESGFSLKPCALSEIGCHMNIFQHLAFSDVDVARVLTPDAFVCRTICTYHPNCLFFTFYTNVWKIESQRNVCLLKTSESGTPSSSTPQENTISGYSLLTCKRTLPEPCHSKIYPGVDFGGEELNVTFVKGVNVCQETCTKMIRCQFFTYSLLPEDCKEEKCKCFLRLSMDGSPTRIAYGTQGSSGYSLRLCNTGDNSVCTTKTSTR

T1 sequence (P03952 391-638 limits assumed): as the sequence (P03952 391-638 limits assumed) above
T1 sequence (P03952 20-390 partner limits assumed): as the sequence (P03952 20-390 partner limits assumed) above

Consider `Cc1ccnc([C@H]2C[C@@H]2C(=O)Nc2nc(C3CC3)nc(N(C)Cc3cn4cc(C5CC5)cc(N5CC(=O)NC5=O)c4n3)n2)n1` (racemic) [Example 522, rac-(1S*,2S*)-N-(4-cyclopropyl-6-(((6-cyclopropyl-8-(2,4-dioxoimidazolidin-1-yl)imidazo[1,2-a]pyridin-2-yl)methyl)(methyl)amino)-1,3,5-triazin-2-yl)-2-(4-methylpyrimidin-2-yl)cyclopropane-1-carboxamide], for which the IC90 (usually the concentration needed for an effect of 90%) in test [1] lay within 400 to 1500 nM. In addition, the 50% effective concentration (EC50) (usually the concentration giving half of the maximal effect) in test [2] is below 1 nM.
As to `Cc1ccnc([C@H]2C[C@@H]2C(=O)Nc2nc(NCc3cn4cc(C5CC5)cc(N5CC(=O)N(C)C5=O)c4n3)nc(C3CC3)n2)n1` (racemic) [Example 523, rac-(1S*,2S*)-N-(4-cyclopropyl-6-(((6-cyclopropyl-8-(3-methyl-2,4-dioxoimidazolidin-1-yl)imidazo[1,2-a]pyridin-2-yl)methyl)amino)-1,3,5-triazin-2-yl)-2-(4-methylpyrimidin-2-yl)cyclopropane-1-carboxamide], the IC90 in test [1] is below 400 nM. Moreover, the half-maximal effective concentration (EC50) in test [2] was below 1 nM.
In the same order, the values of `Cc1ccnc([C@H]2C[C@@H]2C(=O)Nc2nc(C)nc(N(C)Cc3cn4cc(C5CC5)cc(N5CC(=O)NC5=O)c4n3)n2)n1` (racemic) [Example 524, rac-(1S*,2S*)-N-(4-(((6-cyclopropyl-8-(2,4-dioxoimidazolidin-1-yl)imidazo[1,2-a]pyridin-2-yl)methyl)(methyl)amino)-6-methyl-1,3,5-triazin-2-yl)-2-(4-methylpyrimidin-2-yl)cyclopropane-1-carboxamide] are 400 to 1500 nM and below 1 nM.
In the same order, the values of `Cc1ccnc([C@H]2C[C@@H]2C(=O)Nc2nc(C)nc(NCc3cn4cc(C5CC5)cc(N5CC(=O)N(C)C5=O)c4n3)n2)n1` (racemic) [Example 525, rac-(1S*,2S*)-N-(4-(((6-cyclopropyl-8-(3-methyl-2,4-dioxoimidazolidin-1-yl)imidazo[1,2-a]pyridin-2-yl)methyl)amino)-6-methyl-1,3,5-triazin-2-yl)-2-(4-methylpyrimidin-2-yl)cyclopropane-1-carboxamide] are below 400 nM and below 1 nM.
On the same counts, the results for `Cc1ccnc([C@H]2C[C@@H]2C(=O)Nc2cncc(NCc3cn4cc(C5CC5)cc(N5CC(=O)N(C)C5=O)c4n3)n2)n1` (racemic) [Example 526, rac-(1S*,2S*)-N-(6-(((6-cyclopropyl-8-(3-methyl-2,4-dioxoimidazolidin-1-yl)imidazo[1,2-a]pyridin-2-yl)methyl)amino)pyrazin-2-yl)-2-(4-methylpyrimidin-2-yl)cyclopropane-1-carboxamide] are 400 to 1500 nM and below 1 nM.
Take `Cc1ccnc([C@H]2C[C@@H]2C(=O)Nc2nc(NCc3cn4cc(C5CC5)cc(N5CC(=O)N(C)C5=O)c4n3)cc(C3CC3)n2)n1` (racemic) [Example 539, rac-(1S*,2S*)—N-(4-cyclopropyl-6-(((6-cyclopropyl-8-(3-methyl-2,4-dioxoimidazolidin-1-yl)imidazo[1,2-a]pyridin-2-yl)methyl)amino)pyrimidin-2-yl)-2-(4-methylpyrimidin-2-yl)cyclopropane-1-carboxamide]: the IC90 in test [1] fell in the range of 1500 to 10000 nM. The EC50 in test [2] is below 1 nM.
Consider `Cc1ccnc([C@H]2C[C@@H]2C(=O)Nc2ncc(F)c(NCc3cn4cc(C5CC5)cc(N5CC(=O)N(CCO)C5=O)c4n3)n2)n1` (racemic) [Example 540, rac-(1S*,2S*)—N-(4-(((6-cyclopropyl-8-(3-(2-hydroxyethyl)-2,4-dioxoimidazolidin-1-yl)imidazo[1,2-a]pyridin-2-yl)methyl)amino)-5-fluoropyrimidin-2-yl)-2-(4-methylpyrimidin-2-yl)cyclopropane-1-carboxamide], for which the IC90 in test [1] is below 400 nM. Besides, the EC50 in test [2] was below 1 nM.
On the same counts, the results for `CN1C(=O)CN(c2cc(C3CC3)cn3cc(CNc4cc(NC(=O)[C@@H]5[C@@H](c6cccc(Cl)c6)C5(F)F)ncn4)nc23)C1=O` (racemic) [Example 543, rac-(1S*,3S*)-3-(3-chlorophenyl)-N-(6-(((6-cyclopropyl-8-(3-methyl-2,4-dioxoimidazolidin-1-yl)imidazo[1,2-a]pyridin-2-yl)methyl)amino)pyrimidin-4-yl)-2,2-difluorocyclopropane-1-carboxamide] are 1500 to 10000 nM and 1 to 10 nM.
Consider `Cc1ccnc([C@@]2(F)C[C@@H]2C(=O)Nc2cc(N[C@H](C)c3cn4cc(C5CC5)cc(N5CC(=O)N(C)C5=O)c4n3)nc(C)n2)n1` (racemic) [Example 546, rac-(1S*,2S*)—N-(6-(((R)-1-(6-cyclopropyl-8-(3-methyl-2,4-dioxoimidazolidin-1-yl)imidazo[1,2-a]pyridin-2-yl)ethyl)amino)-2-methylpyrimidin-4-yl)-2-fluoro-2-(4-methylpyrimidin-2-yl)cyclopropane-1-carboxamide], for which the IC90 in test [1] was 400 to 1500 nM. The 50% effective concentration (EC50) in test [2] is below 1 nM.
On the same counts, the results for `COc1ccc(C#N)c([C@H]2C[C@@H]2C(=O)Nc2cc(OCc3cn4cc(C5CC5)cc(N5CC(=O)N(C)C5=O)c4n3)cnn2)c1` (racemic) [Example 559, rac-(1S*,2S*)-2-(2-cyano-5-methoxyphenyl)-N-(5-((6-cyclopropyl-8-(3-methyl-2,4-dioxoimidazolidin-1-yl)imidazo[1,2-a]pyridin-2-yl)methoxy)pyridazin-3-yl)cyclopropane-1-carboxamide] are 400 to 1500 nM and 1 to 10 nM.
In the same order, the values of `N#CCCc1cc(C2CC2)cn2cc(COc3ccnc(NC(=O)[C@H]4C[C@@H]4c4cccc(Cl)c4)c3)nc12` (racemic) [Example 566, rac-(1S*,2S*)-2-(3-chlorophenyl)-N-(4-((8-(2-cyanoethyl)-6-cyclopropylimidazo[1,2-a]pyridin-2-yl)methoxy)pyridin-2-yl)cyclopropane-1-carboxamide] are 10000 to 48000 nM and 1 to 10 nM.
On the same counts, the results for `O=C(Nc1cncc(NCc2cn3cc(C4CC4)ccc3n2)c1)[C@H]1C[C@@H]1c1cccc(Cl)c1` (racemic) [Example 574, rac-(1S*,2S*)-2-(3-chlorophenyl)-N-(5-(((6-cyclopropylimidazo[1,2-a]pyridin-2-yl)methyl)amino)pyridin-3-yl)cyclopropane-1-carboxamide] are 10000 to 48000 nM and 1 to 10 nM.
For the molecule `Cc1ccnc([C@H]2C[C@@H]2C(=O)Nc2cncc(NCc3cn4cc(C5CC5)cc(N5CC(=O)N(C)C5=O)c4n3)c2)n1` (racemic) [Example 575, rac-(1S*,2S*)-N-(5-(((6-cyclopropyl-8-(3-methyl-2,4-dioxoimidazolidin-1-yl)imidazo[1,2-a]pyridin-2-yl)methyl)amino)pyridin-3-yl)-2-(4-methylpyrimidin-2-yl)cyclopropane-1-carboxamide], the IC90 in test [1] is below 400 nM. The EC50 in test [2] was below 1 nM.
On the same counts, the results for `O=C(Nc1nsc(NCc2cn3cc(C4CC4)ccc3n2)n1)[C@H]1C[C@@H]1c1cc(Cl)ccn1` (racemic) [Example 614] are 10000 to 48000 nM and 1 to 10 nM.

The values above are taken from patent publication US20240228488A1 (TAKEDA PHARMACEUTICAL COMPANY LIMITED, priority 2021, published 2024).
